The record followed here is US9159937B2, “Heteroleptic light-emitting complexes” (SOLVAY SA, priority 2011, dated 2015).

Data set [1] in a line: Glass transition temperature by DSC. The format is physicochemical. Here is the method: The glass transition temperatures Tg were measured using a TA instruments 2920 DSC equipment and data evaluation were done with the TA Instruments Universal Analysis 2000 software.
A short description of data set [2]: Solubility evaluation in toluene. In kind it is physicochemical. On the procedure:
Solubility evaluation were performed at 25° C. using toluene as solvent.

Where two headings read alike, the source gives them in different places. Where only a bound is given, the exact number is not on record here.

Compound [Ir(n-hexPhQ)3] [reference compound] yielded a Tg in data set [1] of 54 °C.

As for [Ir(2-PhQ)2(DMC2)], the “Toluene solubility S at 25° C.” value in data set [2] is “S > 0.25 wt %”.

On to `[Ir+3].[c-]1ccccc1-c1ccc2ccccc2n1.[c-]1ccccc1-c1ccc2ccccc2n1.[c-]1ccccc1-c1ccc2ccccc2n1` [[Ir(2-PhQ)3], reference compound], for which the “Toluene solubility S at 25° C.” value in data set [2] was “S < 0.02 wt %”; in data set [2] (listed as Ir(2-PhQ)3) it was less than 0.02 wt %.
